The record followed here is ChEMBL document CHEMBL1201862, “PubChem BioAssay data set” (2004).

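Compound exposure: 48 hours, 5 concentrations, 96-well plates. GI50 = concentration required for 50% inhibition of growth.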 Activity calls are given as the source filed them. Cut-off read from the data, not from the text of the source: active = GI50 up to about 1.1 µM and inactive = higher.

Among the test systems are DMS-114; DMS-273; KM-20L2; M19-MEL; XF498; SNB-78; HOP-18; LXFL 529; RXF 631.
Experiment in all cases: NCI anticancer screen, dose series, 48 h

For `C#CN1C(=O)c2c(c(-c3ccccc3)c(-c3ccc(Oc4ccc(-c5c(-c6ccccc6)c6c(c(-c7ccccc7)c5-c5ccccc5)C(=O)N(C#C)C6=O)cc4)cc3)c(-c3ccccc3)c2-c2ccccc2)C1=O`, the GI50 in the test with DMS-114 was > 100 µM (inactive); in the test with DMS-273, > 100 µM (inactive); with KM-20L2 it was > 100 µM (inactive); in the test with M19-MEL it was > 100 µM (inactive); in the test with XF498, 23.2 µM (inactive).
Consider `CC(=O)CNC(=O)OC(C)(C)C`, for which the GI50 in the test on DMS-114, in the test with DMS-273, with KM-20L2, in the test with M19-MEL, in the test on SNB-78 and in the test with XF498 was > 100 µM (inactive) each time.
Turning to `C1OC1CO[C@@H]1CO[C@H]2[C@@H]1OC[C@H]2OCC1CO1` (stereo not given in full), the GI50 with DMS-114, in the test with DMS-273, with HOP-18, with KM-20L2, in the test on M19-MEL and in the test with SNB-78 was > 100 µM (inactive) throughout. In the test on XF498, the GI50 is > 100 µM (inactive).
Take `O=C(COc1ccc2c(=O)cc(-c3ccc(Cl)cc3)oc2c1)N1CCN(c2ccccc2)CC1`: the GI50 in the test on KM-20L2 was > 100 µM (inactive); in the test on LXFL 529, 11.9 µM (inactive); in the test on M19-MEL, > 100 µM (inactive); in the test with RXF 631, 6.58 µM (inactive); in the test with SNB-78 it was 5.11 µM (inactive); in the test on XF498, > 100 µM (inactive).
Take `O=C(/C=C/c1cc(Cl)cc(Cl)c1O)c1cccc(O)c1`: the GI50 with DMS-114 was 35.9 µM (inactive); in the test on DMS-273, 54.2 µM (inactive); in the test on HOP-18 it was 31 µM (inactive); with KM-20L2, 48.3 µM (inactive); with LXFL 529, 57.1 µM (inactive); in the test with M19-MEL it was 26.5 µM (inactive). Moreover, in the test with SNB-78, the GI50 is 91.8 µM (inactive).
On to `O=C1N[C@@H](O)[C@@H]2ON=C(c3ccccc3)[C@H]12`, for which the GI50 with DMS-114, with DMS-273, in the test with HOP-18, in the test with KM-20L2, in the test on LXFL 529 and in the test on M19-MEL was > 100 µM (inactive) throughout. In addition, the GI50 with RXF 631 and in the test on XF498 was > 100 µM (inactive) throughout.
With `COc1cc(C=O)c(-c2cc3c(cc2C2(C)OCCS2)OCO3)c(OC)c1OC` (stereo not given), the GI50 in the test with DMS-114 is 17.5 µM (inactive); with DMS-273 it was 10.3 µM (inactive); in the test on KM-20L2, 4.08 µM (inactive); in the test on LXFL 529, 17.6 µM (inactive); in the test on SNB-78, 8.65 µM (inactive); in the test with XF498, 9.66 µM (inactive).
With `COc1ccc(-c2nc3c(nc2-c2ccc(OC)cc2)C(N)=NS(=O)(=O)N3)cc1`, the GI50 in the test with DMS-114, with DMS-273, in the test on M19-MEL and with RXF 631 was > 100 µM (inactive) throughout.
As to `CCOc1ccc(N2C(=O)/C(=C/c3ccc(N(CCC#N)CCC#N)cc3)N=C2c2cc([N+](=O)[O-])ccc2Cl)cc1`, the GI50 in the test with DMS-114 is 33.9 µM (inactive); in the test on DMS-273, 14.7 µM (inactive); in the test on HOP-18 it was > 100 µM (inactive); in the test with LXFL 529 it was 30 µM (inactive); in the test on M19-MEL it was 24.2 µM (inactive); with RXF 631 it was 39.6 µM (inactive). In addition, in the test on SNB-78, the GI50 is > 100 µM (inactive).
Consider `O=C(/C=C1/Nc2ccc([N+](=O)[O-])cc2NC1O)c1cccc([N+](=O)[O-])c1` (stereo not given), for which the GI50 is 32.1 µM (inactive) with DMS-114; 16.3 µM (inactive) with DMS-273; 25.4 µM (inactive) in the test with KM-20L2; 19.9 µM (inactive) with LXFL 529; 58.3 µM (inactive) in the test on M19-MEL; > 100 µM (inactive) with SNB-78. Further, in the test on XF498, the GI50 is > 100 µM (inactive).
As to `COC(=O)C1=C(C)N(NC(N)=O)C2(N)N(NC(N)=O)C(C)=C(C(=O)OC)C12C(=O)OC` (stereo not given), the GI50 in the test with DMS-114, in the test on DMS-273, with HOP-18, in the test with KM-20L2, with LXFL 529 and in the test with M19-MEL was > 100 µM (inactive) in each case. Moreover, the GI50 in the test on RXF 631, in the test with SNB-78 and with XF498 was > 100 µM (inactive) throughout.
As for `O=C(/C=C/c1ccc(OCCCCCCCCCCOc2ccc(/C=C/C(=O)c3ccc(Cl)cc3)cc2)cc1)c1ccc(Cl)cc1`, the GI50 in the test on DMS-114, in the test on DMS-273, with HOP-18, in the test on KM-20L2, in the test with RXF 631 and in the test with SNB-78 was > 100 µM (inactive) throughout.
As for `Nc1nc2ncn(CC(O)CO)c2c(=S)[nH]1` (stereo not given), the GI50 in the test on DMS-114, with DMS-273, in the test on HOP-18, in the test with KM-20L2, in the test with LXFL 529 and in the test with M19-MEL was > 100 µM (inactive) throughout. The GI50 with RXF 631 is > 100 µM (inactive); in the test on SNB-78, > 100 µM (inactive); in the test on XF498 it was 23.4 µM (inactive).
As to `O=C1c2ccccc2C(=O)c2nc(-c3ccccc3)c(-c3ccccc3)nc21`, the GI50 was 1.21 µM (inactive) in the test with DMS-114; 33.7 µM (inactive) in the test on DMS-273; 26.7 µM (inactive) with HOP-18; 50.5 µM (inactive) in the test with KM-20L2; > 100 µM (inactive) in the test with LXFL 529; 0.427 µM (active) in the test with M19-MEL. In addition, the GI50 in the test with RXF 631 was 33.4 µM (inactive); in the test with SNB-78, > 100 µM (inactive); with XF498, 14.4 µM (inactive).
On to `c1ccc(SC23C4C5C6C4C2C6C53)nc1` (stereo not given), for which the GI50 is > 100 µM (inactive) with DMS-114; > 100 µM (inactive) in the test on DMS-273; 4.86 µM (inactive) in the test on HOP-18; > 100 µM (inactive) with KM-20L2; > 100 µM (inactive) with LXFL 529; > 100 µM (inactive) in the test on M19-MEL. Also, the GI50 with RXF 631 and in the test on SNB-78 was > 100 µM (inactive) in each case.
With `O=C(CC(=O)c1cccc2ccccc12)C(=O)NC1C2CC3CC(C2)CC1C3` (stereo not given), the GI50 is > 100 µM (inactive) with DMS-114; > 100 µM (inactive) in the test with DMS-273; 60.1 µM (inactive) in the test with HOP-18; > 100 µM (inactive) with KM-20L2; > 100 µM (inactive) in the test with LXFL 529; > 100 µM (inactive) with M19-MEL. Further, the GI50 with RXF 631, in the test on SNB-78 and with XF498 was > 100 µM (inactive) throughout.
Consider `CN(C)C(=S)Nc1nnc(Nc2ccccc2)s1`, for which the GI50 in the test with DMS-273, with HOP-18, in the test with KM-20L2, in the test on LXFL 529, in the test with M19-MEL and with RXF 631 was > 100 µM (inactive) each time. The GI50 in the test on SNB-78 is > 100 µM (inactive).
`CCCCN(Cc1ccccc1)/C(=N/C#N)N(Cc1ccccc1)Cc1ccccc1`: the GI50 was 16.6 µM (inactive) with DMS-273; 6.82 µM (inactive) in the test on KM-20L2; 7.94 µM (inactive) in the test on LXFL 529; 24.4 µM (inactive) with M19-MEL; 24.2 µM (inactive) in the test on SNB-78.
On to `COC(=O)/C=C/c1cc(OC)c(OC)c(OC)c1`, for which the GI50 is > 100 µM (inactive) with DMS-114; > 100 µM (inactive) in the test on DMS-273; > 100 µM (inactive) with HOP-18; > 100 µM (inactive) in the test with KM-20L2; > 100 µM (inactive) in the test with LXFL 529; 93.8 µM (inactive) in the test with M19-MEL. The GI50 is 82.4 µM (inactive) in the test with RXF 631 and > 100 µM (inactive) with XF498.
In the case of `Cc1ccc(C2(O)CC(c3ccc([N+](=O)[O-])o3)=NN2C(=O)COc2ccc(Cl)cc2)cc1` (stereo not given), the GI50 is 9.86 µM (inactive) with DMS-114; 6.32 µM (inactive) with DMS-273; 20.9 µM (inactive) in the test on HOP-18; 7.18 µM (inactive) with KM-20L2; 2.79 µM (inactive) in the test on LXFL 529; 3.67 µM (inactive) with M19-MEL. The GI50 was 12.9 µM (inactive) in the test on SNB-78 and 11.4 µM (inactive) in the test on XF498.
Consider `COc1ccc(/C(=N\NC(=N)N)C(c2ccc(OC)cc2)C2OC(=O)c3ccccc32)cc1` (stereo not given), for which the GI50 with DMS-114, with DMS-273, with KM-20L2, in the test with LXFL 529, with M19-MEL and in the test with RXF 631 was > 100 µM (inactive) in each case. In addition, the GI50 with SNB-78 and in the test on XF498 was > 100 µM (inactive) throughout.
Consider `C1=CC(N(c2ccccc2)C2C=CCCC2)CCC1` (stereo not given), for which the GI50 in the test with DMS-114 is 67.3 µM (inactive); in the test with DMS-273, > 100 µM (inactive); in the test on HOP-18 it was > 100 µM (inactive); in the test with KM-20L2, 72.6 µM (inactive); in the test on LXFL 529 it was > 100 µM (inactive); in the test with M19-MEL it was > 100 µM (inactive).
For the compound `Clc1cccc(-c2nnc(-c3nn(-c4ccccc4)c4nc5ccccc5nc34)o2)c1`, the GI50 with DMS-114 is > 100 µM (inactive); in the test on DMS-273, > 100 µM (inactive); in the test on HOP-18, > 100 µM (inactive); in the test on KM-20L2 it was > 100 µM (inactive); in the test with LXFL 529, 78.9 µM (inactive); in the test on M19-MEL, > 100 µM (inactive). Also, the values for the GI50 in the test on SNB-78 and in the test on XF498 were > 100 µM (inactive) and 43.8 µM (inactive), respectively.
Consider `O=C1Nc2ccccc2C12CCNC2Cc1ccccc1` (stereo not given), for which the GI50 in the test on DMS-114 is > 100 µM (inactive); in the test on DMS-273, > 100 µM (inactive); with HOP-18, 78.3 µM (inactive); with KM-20L2, > 100 µM (inactive); in the test with LXFL 529, > 100 µM (inactive); in the test with M19-MEL, > 100 µM (inactive). Further, the GI50 in the test on XF498 is > 100 µM (inactive).
